ChEMBL document CHEMBL1781948, “Cytotoxic veraguamides, alkynyl bromide-containing cyclic depsipeptides from the marine cyanobacterium cf. Oscillatoria margaritifera” (2011)
Calls of active or inactive are those of the source. No cut-off for these calls is given here. Where a SMILES comes first, the peptide text is derived from it. [ ]: non-standard residue; d: D form. The star is where a group is joined. Hmpa(2S,3S) = CC[C@H](C)[C@H](O)C(=O)O; X1 = C[C@H](C(=O)*)[C@H](O)CCCC#CBr; NMeV = CN[C@H](C(=O)O)C(C)C; Hiv = CC(C)[C@H](O)C(=O)O

Tested on: NCI-H460
Assay: Cytotoxicity against human H460 cells after 48 hrs by MTT assay
Format: functional

Compound | CC50 (NCI-H460, 48 h, read-out: LD50 (the source's name)) [nM] | LD50
CC[C@H](C)[C@@H]1OC(=O)[C@H](C(C)C)N(C)C(=O)[C@H](C(C)C)NC(=O)[C@@H](C)[C@@H](CCCC#CBr)OC(=O)[C@H](C(C)C)N(C)C(=O)[C@@H]2CCCN2C1=O [VERAGUAMIDE A] | 141 | 
CCOC(=O)[C@H](C(C)C)N(C)C(=O)[C@@H]1CCCN1C(=O)[C@@H](OC(=O)[C@H](C(C)C)N(C)C(=O)[C@@H](NC(=O)[C@@H](C)[C@H](O)CCCC#CBr)C(C)C)[C@@H](C)CC (X1-V[NMeV][Hmpa(2S,3S)]P[NMeV]-OEt) |  | Active
CC(C)[C@@H]1NC(=O)[C@@H](C)[C@@H](CCCC#CBr)OC(=O)[C@H](C(C)C)N(C)C(=O)[C@@H]2CCCN2C(=O)[C@H](C(C)C)OC(=O)[C@H](C(C)C)N(C)C1=O |  | Active
C#CCCC[C@H]1OC(=O)[C@H](C(C)C)N(C)C(=O)[C@@H]2CCCN2C(=O)[C@H]([C@@H](C)CC)OC(=O)[C@H](C(C)C)N(C)C(=O)[C@H](C(C)C)NC(=O)[C@H]1C |  | Active
CCOC(=O)[C@H](C(C)C)N(C)C(=O)[C@@H]1CCCN1C(=O)[C@@H](OC(=O)[C@H](C(C)C)N(C)C(=O)[C@@H](NC(=O)[C@@H](C)[C@H](O)CCCC#CBr)C(C)C)C(C)C (X1-V[NMeV][Hiv]P[NMeV]-OEt) |  | Active
